# Source: patent publication US20190321420A1, “METHOD AND COMPOSITION FOR PREVENTING, TREATING OR RELIEVING BONE DISEASES” (GRAPE KING BIO Ltd., priority 2018, published 2019)
# Marks after values point to notes of the source that are not given here.
# What was measured:
# [1] = system: ovariectomized ICR female mice; test: Bone mineral density (BMD) of the femur in ovariectomized mice; assay type: in vivo; details: right femur, 32nd day after ovariectomy; GKM3/GKS6 205 mg/kg oral gavage once/day for 28 days; Alen 2.5 mg/kg 3 times a week for 28 days; n = 6
# Procedure: In this embodiment, GKM3 and GKS6 powders were each prepared in a 0.5% (w/v) carboxymethylcellulose (CMC) solution as a suspension with a concentration of 205 mg/mL The vehicle group used 0.5% (w/v) CMC solution.
# Because bone metabolism is closely related to estrogen, mice with bilateral ovariectomy were used as a model for studying osteoporosis in postmenopausal animals. After the recovery period of 1 to 2 weeks after the bilateral ovariectomy, mice were randomly assigned to different treatment groups.
# In this embodiment, 8-week-old ICR female mice were purchased from BioLASCO Taiwan Co., Ltd., and ovariectomy (OVX) was performed when they were 9 weeks old. […]
# Computerized tomography images of the right distal femur of ICR mice were obtained by a micro-computed tomography (micro-CT) scanner (SkyScan 1076, Kontizh, Belgium) with a resolution of 18 μm and were analyzed by a software to obtain the trabecular bone volume density (i.e., bone volume/tissue volume, BV/TV), the trabecular thickness (Tb.Th), the trabecular number (Tb.N), and the trabecular spacing (Tb.Sp). The analyzed position was selected to include the area of 100 pieces under the growth plate but not the cortical bone. […]
# The bone density (mass/volume) was detected by the micro-CT. […]
# The obtained data in the experiments were analyzed with one-way analysis of variance (one-way ANOVA) and the Duncan's multiple range test. […]
# [2] = system: ovariectomized ICR female mice; test: Micro-CT bone tissue analysis of the right distal femur in ovariectomized mice (osteoporosis model); assay type: in vivo; details: 32nd day after ovariectomy, GKM3/GKS6 205 mg/kg oral gavage once/day for 28 days, Alen 2.5 mg/kg 3 times a week for 28 days, n = 6
smiles,measurement,setting,value
"NCCCC(O)(P(=O)(O)O)P(=O)(O)O [Alen, alendronate]",Femur BMD,[1],0.60 ± 0.02* g/cm^3
same,Femur Tb.N,[2],3.3 ± 0.1 No./mm
same,Femur Tb.Sp,[2],232.9 ± 25.9 μm
same,Femur Tb.Th,[2],109.9 ± 3.9 μm
